Measurements: ChEMBL document CHEMBL5712891, “Inhibition of BET bromodomain-dependent XIAP and FLIP expression sensitizes KRAS-mutated NSCLC to pro-apoptotic agents” (Cell Death Dis, 2016)
Active and inactive are the calls of the source. No cut-off for these calls is given here.

Columns and labels:
[1] = system: DV-90; experiment: Induction of cell cycle arrest in human DV-90 cells assessed as accumulation of cells at G0/G1 phase at 0.1 uM for 24 hrs by Click-iT EdU Alexa Fluor 647 flow cytometric assay kit analysis (reference value: 47%); format: functional
[2] = system: DV-90; experiment: Induction of cell cycle arrest in human DV-90 cells assessed as accumulation of cells at G2/M phase at 0.5 uM for 24 hrs by Click-iT EdU Alexa Fluor 647 flow cytometric assay kit analysis (reference value: 21%); format: functional
[3] = system: DV-90; experiment: Induction of cell cycle arrest in human DV-90 cells assessed as accumulation of cells at G2/M phase at 1 uM for 24 hrs by Click-iT EdU Alexa Fluor 647 flow cytometric assay kit analysis (reference value: 21%); format: functional
[4] = system: A549; experiment: Induction of apoptosis in human A549 cells assessed as viable cells at 0.5 uM for 24 hrs by annexin V-PI staining based flow cytometric analysis (reference value: 97.7%); format: functional; settings: read-out: Activity
[5] = system: A549; experiment: Induction of apoptosis in human A549 cells assessed as necrotic cells at 0.5 uM for 24 hrs by annexin V-PI staining based flow cytometric analysis (reference value: 0.9%); format: functional
[6] = system: A549; experiment: Induction of apoptosis in human A549 cells assessed as early apoptotic cells at 2.5 uM for 24 hrs by annexin V-PI staining based flow cytometric analysis (reference value: 0.2%); format: functional
[7] = system: A549; experiment: Induction of apoptosis in human A549 cells assessed as late apoptotic cells at 2.5 uM for 24 hrs by annexin V-PI staining based flow cytometric analysis (reference value: 1.2%); format: functional
[8] = system: NCI-H1373; experiment: Induction of apoptosis in human NCI-H1373 cells assessed as late apoptotic cells at 2.5 uM for 24 hrs by annexin V-PI staining based flow cytometric analysis (reference value: 22.3%); format: functional
[9] = system: NCI-H460; experiment: Induction of cell cycle arrest in human NCI-H460 cells assessed as accumulation of cells at S phase at 0.25 uM for 24 hrs by Click-iT EdU Alexa Fluor 647 flow cytometric assay kit analysis (reference value: 54%); format: functional
[10] = system: NCI-H460; experiment: Induction of cell cycle arrest in human NCI-H460 cells assessed as accumulation of cells at S phase at 0.5 uM for 24 hrs by Click-iT EdU Alexa Fluor 647 flow cytometric assay kit analysis (reference value: 54%); format: functional
[11] = system: A549; experiment: Induction of cell cycle arrest in human A549 cells assessed as accumulation of cells at S phase at 0.5 uM for 24 hrs by Click-iT EdU Alexa Fluor 647 flow cytometric assay kit analysis (reference value: 35%); format: functional
[12] = system: A549; experiment: Induction of cell cycle arrest in human A549 cells assessed as accumulation of cells at G0/G1 phase at 0.25 uM for 24 hrs by Click-iT EdU Alexa Fluor 647 flow cytometric assay kit analysis (reference value: 61%); format: functional
[13] = system: A549; experiment: Induction of cell cycle arrest in human A549 cells assessed as accumulation of cells at G2/M phase at 0.1 uM for 24 hrs by Click-iT EdU Alexa Fluor 647 flow cytometric assay kit analysis (reference value: 3%); format: functional
[14] = system: DV-90; experiment: Induction of cell cycle arrest in human DV-90 cells assessed as accumulation of cells at G0/G1 phase at 1 uM for 24 hrs by Click-iT EdU Alexa Fluor 647 flow cytometric assay kit analysis (reference value: 44%); format: functional
[15] = system: DV-90; experiment: Induction of cell cycle arrest in human DV-90 cells assessed as accumulation of cells at G0/G1 phase at 0.25 uM for 24 hrs by Click-iT EdU Alexa Fluor 647 flow cytometric assay kit analysis (reference value: 44%); format: functional
[16] = system: DV-90; experiment: Induction of cell cycle arrest in human DV-90 cells assessed as accumulation of cells at G2/M phase at 0.1 uM for 24 hrs by Click-iT EdU Alexa Fluor 647 flow cytometric assay kit analysis (reference value: 24%); format: functional
[17] = system: NCI-H1373; experiment: Induction of cell cycle arrest in human NCI-H1373 cells assessed as accumulation of cells at G0/G1 phase at 0.25 uM for 24 hrs by Click-iT EdU Alexa Fluor 647 flow cytometric assay kit analysis (reference value: 40%); format: functional
[18] = system: NCI-H1373; experiment: Induction of cell cycle arrest in human NCI-H1373 cells assessed as accumulation of cells at G2/M phase at 0.1 uM for 24 hrs by Click-iT EdU Alexa Fluor 647 flow cytometric assay kit analysis (reference value: 13%); format: functional
[19] = system: NCI-H1373; experiment: Induction of cell cycle arrest in human NCI-H1373 cells assessed as accumulation of cells at G0/G1 phase at 0.1 uM for 24 hrs by Click-iT EdU Alexa Fluor 647 flow cytometric assay kit analysis (reference value: 40%); format: functional
[20] = system: DV-90; experiment: Induction of apoptosis in human DV-90 cells assessed as necrotic cells at 0.5 uM for 24 hrs by annexin V-PI staining based flow cytometric analysis (reference value: 5.4%); format: functional
[21] = system: A549; experiment: Induction of apoptosis in human A549 cells assessed as late apoptotic cells at 0.5 uM for 24 hrs by annexin V-PI staining based flow cytometric analysis (reference value: 2.3%); format: functional
[22] = system: NCI-H1373; experiment: Induction of apoptosis in human NCI-H1373 cells assessed as necrotic cells at 0.5 uM for 24 hrs by annexin V-PI staining based flow cytometric analysis (reference value: 5.5%); format: functional
[23] = system: NCI-H460; experiment: Induction of apoptosis in human NCI-H460 cells assessed as viable cells at 0.5 uM for 24 hrs by annexin V-PI staining based flow cytometric analysis (reference value: 94%); format: functional; settings: read-out: Activity
[24] = system: NCI-H460; experiment: Induction of apoptosis in human NCI-H460 cells assessed as late apoptotic cells at 0.5 uM for 24 hrs by annexin V-PI staining based flow cytometric analysis (reference value: 3.0%); format: functional
[25] = system: DV-90; experiment: Downregulation of FLIP gene in human DV-90 cells after 24 hrs by microarray profiling analysis; format: functional, cell-based
[26] = system: NCI-H1373; experiment: Downregulation of c-MYC protein level in human NCI-H1373 cells upto 24 hrs by Western blot analysis; format: functional, cell-based; settings: dose 100-5000 nM
[27] = system: NCI-H23; experiment: Downregulation of c-MYC mRNA expression level in human NCI-H23 cells at 0.1 to 1 uM for 24 hrs by qRT-PCR analysis; format: functional, cell-based; settings: dose 0.1-1 µM
[28] = system: NCI-H1373; experiment: Downregulation of c-MYC level SCID mouse tumor tissue xenografted with human NCI-H1373 cells at 50 mg/kg, ip for 24 hrs by Western blot analysis; format: functional, organism-based; settings: Neoplasm
[29] = system: DV-90; experiment: Downregulation of XIAP mRNA expression level in human DV-90 cells at 0.1 to 1 uM for 24 hrs by qRT-PCR analysis; format: functional, cell-based; settings: dose 0.1-1 µM
[30] = system: NCI-H1373; experiment: Induction of TRAIL dependent apoptosis in human NCI-H1373 cells assessed as PARP cleavage by Western blot analysis; format: functional, cell-based
[31] = system: A549; experiment: Antitumor activity against human A549 cells assessed as test to control tumor ratio at 50 mg/kg, ip for 28 days relative to control; format: functional; settings: time 28 day
[32] = system: A549; experiment: Antitumor activity against human A549 cells assessed as test to control tumor ratio administered at 80 mg/kg, ip for 7 days along with cisplatin for 5 days follwed by compound treatment for 14 days relative to control; format: functional; settings: time 7 day

## Cc1sc2c(c1C)C(c1ccc(Cl)cc1)=N[C@@H](CC(=O)Nc1ccc(O)cc1)c1nnc(C)n1-2 [BIRABRESIB]
[1]
  Activity: 50%
[2]
  Activity: 25%
[3]
  Activity: 22%
[4]
  viability at 0.5 µM: 98.1%
[5]
  Activity: 0.7%
[6]
  Activity: 0.1%
[7]
  Activity: 1.5%
[8]
  Activity: 20.3%

## CCNC(=O)C[C@@H]1N=C(c2ccc(Cl)cc2)c2cc(OC)ccc2-n2c(C)nnc21 [MOLIBRESIB]
[9]
  Activity: 56%
[10]
  Activity: 46%

## Cc1sc2c(c1C)C(c1ccc(Cl)cc1)=N[C@@H](CC(=O)OC(C)(C)C)c1nnc(C)n1-2
[11]
  Activity: 33%
[12]
  Activity: 63%
[13]
  Activity: 2%
[14]
  Activity: 56%
[15]
  Activity: 45%
[16]
  Activity: 31%
[17]
  Activity: 60%
[18]
  Activity: 17%
[19]
  Activity: 44%
[20]
  Activity: 25.4%
[21]
  Activity: 1.5%
[22]
  Activity: 13%
[23]
  viability at 0.5 µM: 91.2%
[24]
  Activity: 4.5%
[25]
  Activity: Active
[26]
  Activity: Dose-Dependent Effect
[27]
  Activity: Active
[28]
  Activity: Active
[29]
  Activity: Active
[30]
  Activity: Active
[31]
  T/C: 79%
[32]
  T/C: 41%
